Reference: patent publication US20240156973A1, “OSTEOTROPIC COMPOSITIONS AND USES THEREOF” (Purdue Research Foundation, priority 2021, published 2024)

Columns and labels:
[1] = tested on: male C57BL/6 mice with surgically induced femoral fracture; experiment: Surgically induced femoral fracture, X-ray and ex vivo µCT of callus; format: in vivo
Method: FIG. 14A are representative μCT images of femurs 3 weeks post-surgery from 12-week-old C57BL/6 male mice that underwent a surgically created fracture and received 3×/wk injection of targeted SRT1720 (SRT1720-Aspartic Acid Oligopeptide described herein; SQ, 6 mg/kg/dose) or vehicle control.
FIG. 14B is a bar graph showing μCT analysis of the mineralized callus volume (BV/TV) for each treatment group ([…], 2, 6, and 20 mg/kg/dose),
FIG. 14C is a bar graph showing μtCT analysis of the callus trabecular thickness (Tb.Th) within the callus region for each treatment group.
(§1) Weekly X-rays were used to examine healing progression. Prior to euthanasia, mice underwent behavioral testing to measure evoked pain behaviors, Upon euthanasia, ex vivo μCT imaging (FIGS. 14A-14C) and analysis was completed to assess fracture callus size and composition.

[2] = tested on: male C57BL/6 mice with surgically induced femoral fracture; experiment: Von Frey testing of evoked pain behavior after femoral fracture; format: in vivo
Method: FIG. 15 is bar graphs for 12-week-old C57BL/6 male mice that underwent a surgically created fracture and received 3×/wk injection of targeted SRT1720 (SQ, 2, 6, and 20 mg/kg/dose) or vehicle control.
as §1

[3] = biological target: T1, Thrombopoietin Receptor (TPOR) (Homo sapiens, UniProt P40238); details: TPOR binding; cysteine-containing peptides in cyclic form; cited from earlier work
T1 sequence (P40238 26-491 limits assumed): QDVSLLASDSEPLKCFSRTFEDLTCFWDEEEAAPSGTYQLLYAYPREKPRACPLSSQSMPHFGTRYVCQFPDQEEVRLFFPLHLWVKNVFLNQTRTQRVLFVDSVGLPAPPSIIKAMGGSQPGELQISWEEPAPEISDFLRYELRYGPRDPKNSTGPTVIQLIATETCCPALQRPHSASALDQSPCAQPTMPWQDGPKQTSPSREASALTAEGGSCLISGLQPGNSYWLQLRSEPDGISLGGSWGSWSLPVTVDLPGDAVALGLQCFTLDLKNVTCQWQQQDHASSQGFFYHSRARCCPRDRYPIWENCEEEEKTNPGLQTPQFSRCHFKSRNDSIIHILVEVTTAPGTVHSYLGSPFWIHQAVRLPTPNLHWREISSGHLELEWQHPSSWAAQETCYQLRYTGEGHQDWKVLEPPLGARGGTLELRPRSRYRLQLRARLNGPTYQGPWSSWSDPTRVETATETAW

[4] = tested on: female Swiss Webster mice with midshaft femur fractures; experiment: Midshaft femur fracture healing, micro-CT of fracture callus; format: in vivo; details: three weeks
Method: Fracture healing was assessed using micro-CT (Scanco Medical Ag or PerkinElmer). […] Morphometric parameters were quantified in an ROI that included just the fracture callus. […] Statistical analysis was performed using a one-way analysis of variance (ANOVA) and a Dunnett's post-hoc analysis with significance reported at the P value of 0.05. All animal experiments were performed in accordance with protocols approved by Purdue University's Institutional Animal Care and Use Committee (IACUC).

[5] = 6 mg/kg, 3x/week, 3 weeks, p<0.05
[6] = all doses (2, 6, 20 mg/kg, 3x/week), 3 weeks post-surgery

O=C(Nc1ccccc1-c1cn2c(CN3CCNCC3)csc2n1)c1cnc2ccccc2n1 [SRT1720]
bone healing ([1]; 6 mg/kg, 3x/week, 3 weeks): accelerated bone healing | mineralized callus volume [1, 5]: significant increase in mineralized callus volume | bone healing ([1]; all doses (2, 6, 20 mg/kg, 3x/week, 3 weeks)): improved healing | paw withdrawal thresholds (evoked responses to tactile stimulus) [2, 5]: more robust and significant improvement | paw withdrawal thresholds (evoked responses to tactile stimulus) [2, 6]: increased paw withdrawal thresholds

N[C@@H](CCC(=O)O)C(=O)N[C@@H](CCC(=O)O)C(=O)N[C@@H](CCC(=O)O)C(=O)N[C@@H](CCC(=O)O)C(=O)N[C@@H](CCC(=O)O)C(=O)N[C@@H](CCC(=O)O)C(=O)N[C@@H](CCC(=O)O)C(=O)N[C@@H](CCC(=O)O)C(=O)N[C@@H](CCC(=O)O)C(=O)N[C@@H](CCC(=O)O)C(=O)N[C@@H](CSSCCOC(=O)N1CCN(Cc2csc3nc(-c4ccccc4NC(=O)c4cnc5ccccc5n4)cn23)CC1)C(=O)O [targeted SRT1720]
paw withdrawal thresholds (evoked responses to tactile stimulus) [2, 6]: improved mN forces

GGCADGPTLREWISFCGG [AF12193]
IC50 [3]: 60 nM

GGCTLREWLHGGFCGG [AF12192]
IC50 [3]: 200 nM

GNADGPTLRQWLEGRRPKN [AF12359]
IC50 [3]: 66 nM

GRVBDQIMLSLGG [AF12191]
IC50 [3]: 20000 nM

IEGPTLRQWLAARA [AF12505]
IC50 [3]: 2 nM

IEGPTLRQWLAARA-K-β-Ala-IEGPTLRQWLAARA [AF13948]
IC50 [3]: 0.5 nM

Ile-Glu-Gly-Pro-Thr-Leu-Arg-Gln-Npa-Leu-Ala-Ala-Arg-Sar [TMP]
bone volume, dose-response shape ([4]; untargeted TMP daily 0.1, 1 and 10 nmol s.c.): parabolic dosing window | callus bone volume/total volume, dose-response shape ([4]; untargeted TMP daily 3.3, 33 and 330 nmol/kg s.c.): parabolic dosing window | dose with maximum response on callus mineralization (bone volume) ([4]; untargeted TMP daily s.c.): 1 nmol/day | dose with maximum response on callus mineralization (bone volume/total volume) ([4]; untargeted TMP daily s.c.): 33 nmol/kg

LAIEGPTLRQWLHGNGPDT [AF12434]
IC50 [3]: 20 nM

TIKGFTLRQWLKSREHTS [AF12405]
IC50 [3]: 50 nM
